Laboratory results from patent publication US10537521B2 (priority 2016, dated 2020).
Where a name gives a salt, the structure may show the parent alone. Read-outs that look alike come from different tables or passages of the source.

Legend:
[1] = system: rats and dogs; conditions: repeat-dose toxicity; cited from earlier work
[2] = cited from earlier work
[3] = tramadol single […] [100 mg] p.o., humans N=12 male; cited from earlier work
[4] = standard in vitro and in vivo studies; cited from earlier work
[5] = system: patients undergoing abdominal surgery; conditions: cited from earlier work
[6] = after oral administration; cited from earlier work
[7] = system: experienced opioid abusers; conditions: cited from earlier work
[8] = Example 1: multiple-dose randomized 3-way crossover PK study of two IV tramadol regimens vs 100 mg oral q6h; conditions: for theoretical accumulation factor: 1/[1-exp(−ln 2*tau/T1/2)], T1/2 approximately […]
Experimental: A fitted curve was obtained because the second oral peak was not measured in the study. For the modeling portion of the analysis, a validated Phoenix® WinNonlin® program version 6.4 (Certara) was used for PK analysis, simulation, graphics, tables and statistical calculations. […] For purposes of nonlinear regression, the data were weighted as 1/observed. Predicted concentration-time data were calculated based on the individual fitted PK parameters.

COc1cccc([C@]2(O)CCCC[C@H]2CN(C)C)c1 (racemic) [Tramadol, (±)cis-2-[(dimethylamino)methyl]-1-(3-methoxyphenyl) cyclohexanol hydrochloride]
doses with behavioral/clinical signs and convulsions [1]: > 25 mg/kg/day | absolute bioavailability ([2]; oral, continuous dosing (Liao et al., 1992)): 90-100% | increase of elimination half-life ([2]; subjects with renal or hepatic impairment): approximately 2 fold | AUC [3]: 2177 ± 722 ng·h/mL | Cmax [3]: 274 ± 75 ng/mL | Tmax [3]: 1.6 ± 0.5 h | t1/2 [3]: 5.9 ± 0.7 h | genotoxic potential [4]: no evidence of genotoxic potential | patients reporting adverse events ([5]; both groups (infusion and bolus)): 25% | effects on blood pressure or heart rate ([5]; infusion and bolus groups): no significant effects | fertility or teratogenic effects [6]: no safety concerns | seizure ([7]; 200 mg IV administered over 5 minutes): No seizures were observed | seizure ([7]; 300 mg IV delivered over 2.5 minutes): seizure was observed | seizure ([7]; 700 mg IV administered over 1 minute): seizure was observed | ratings of “liking” ([7]; tramadol 100 and 200 mg IV, morphine 10 and 20 mg IV, over 5 minutes, 10 experienced opioid abusers): neither dose of tramadol increased ratings | ratings of “feel drug effect” compared to placebo ([7]; tramadol 100 and 200 mg IV, morphine 10 and 20 mg IV, over 5 minutes): significantly increased | ratings on the ARCI-MBG scale ([7]; tramadol 100 and 200 mg IV, morphine 20 mg IV): neither dose of tramadol increased ratings | predicted exposure over 12 h at steady state ([8]; 50 mg IV q4h, 3 x AUCtau n): 6684 ng·h/mL | RAC(trough) ([8]; 50 mg IV regimen (h 0, 2, 4, then q4h to h 44), mean): 2.1937 | Css ([8]; 50 mg IV regimen (h 0, 2, 4, then q4h to h 44), plasma, mean): 557 ng/mL | predicted exposure over 12 h at steady state ([8]; 75 mg IV q6h, 2 x AUCtau n): 6072 ng·h/mL | RAC(trough) ([8]; 75 mg IV regimen (h 0, 3, 6, then q6h to h 42), mean): 1.5026 | Css ([8]; 75 mg IV regimen (h 0, 3, 6, then q6h to h 42), plasma, mean): 506 ng/mL | AUC24-48 ([8]; 75 mg IV regimen (h 0, 3, 6, then q6h to h 42), plasma, mean, hydrochloride): 9402 ng·h/mL | predicted exposure over 12 h at steady state ([8]; 100 mg PO q6h, 2 x AUCtau n): 6950 ng·h/mL | RAC(trough) ([8]; 100 mg oral q6h to h 42, mean): 2.5580 | Css ([8]; 100 mg oral q6h to h 42, plasma, mean): 579 ng/mL | theoretical accumulation factor ([8]; 4-h dosing interval): 2.42 | theoretical accumulation factor ([8]; 6-h dosing interval): 1.82 | AUC(0-t) ([8]; human, plasma, iv, 50 mg, AUC0-24, 50 mg IV regimen (h 0, 2, 4, then q4h to h 44), plasma, mean): 9520 ng·h/mL | AUC(0-t) ([8]; human, plasma, iv, 50 mg, AUC0-48, 50 mg IV regimen (h 0, 2, 4, then q4h to h 44), plasma, mean): 20500 ng·h/mL | AUC ([8]; human, plasma, iv, 50 mg, AUC24-48, 50 mg IV regimen (h 0, 2, 4, then q4h to h 44), plasma, mean): 11000 ng·h/mL | AUC ([8]; human, plasma, iv, 50 mg, AUCtau 1, 50 mg IV regimen (h 0, 2, 4, then q4h to h 44), first dosing interval, mean): 624 ng·h/mL | AUC ([8]; human, plasma, iv, 50 mg, AUCtau n, 50 mg IV regimen (h 0, 2, 4, then q4h to h 44), last dosing interval, mean): 2230 ng·h/mL | concentration at 2 h ([8]; human, plasma, iv, 50 mg, C2, 50 mg IV regimen (h 0, 2, 4, then q4h to h 44), plasma, mean): 203 ng/mL | concentration at 48 h ([8]; human, plasma, iv, 50 mg, C48 (T48), 50 mg IV regimen (h 0, 2, 4, then q4h to h 44), plasma, mean): 448 ng/mL | concentration at 1 h ([8]; human, plasma, iv, 50 mg, C1 h, 50 mg IV regimen (h 0, 2, 4, then q4h to h 44), plasma, mean): 243 ng/mL | Cmax ([8]; human, plasma, iv, 50 mg, Cmax(0-2), 50 mg IV regimen (h 0, 2, 4, then q4h to h 44), first dose, plasma, mean): 294 ng/mL | Cmax ([8]; human, plasma, iv, 50 mg, Cmax(2-4), 50 mg IV regimen (h 0, 2, 4, then q4h to h 44), plasma, mean): 479 ng/mL | Cmax ([8]; human, plasma, iv, 50 mg, Cmax(44-48), 50 mg IV regimen (h 0, 2, 4, then q4h to h 44), steady-state, plasma, mean): 711 ng/mL | Cmax ([8]; human, plasma, iv, 50 mg, Cmax, 50 mg IV regimen (h 0, 2, 4, then q4h to h 44), plasma, mean): 736 ng/mL | Tmax ([8]; human, plasma, iv, 50 mg, Tmax(0-2), 50 mg IV regimen (h 0, 2, 4, then q4h to h 44), plasma, mean): 0.54 h | Tmax ([8]; human, plasma, iv, 50 mg, Tmax(2-4), 50 mg IV regimen (h 0, 2, 4, then q4h to h 44), plasma, mean): 2.36 h | Tmax ([8]; human, plasma, iv, 50 mg, Tmax(44-48), 50 mg IV regimen (h 0, 2, 4, then q4h to h 44), plasma, mean): 44.3 h | Tmax ([8]; human, plasma, iv, 50 mg, Tmax, 50 mg IV regimen (h 0, 2, 4, then q4h to h 44), plasma, mean): 30 h | concentration at 0 h ([8]; human, plasma, iv, 50 mg, plasma concentration, Mean, 50 mg IV Dose (h 0, 2, 4, then q4h to h 44), Time 0.00 hr): 0.726 ng/mL | concentration at 0.25 h ([8]; human, plasma, iv, 50 mg, plasma concentration, Mean, 50 mg IV Dose (h 0, 2, 4, then q4h to h 44), Time 0.250 hr): 253 ng/mL | concentration at 0.5 h ([8]; human, plasma, iv, 50 mg, plasma concentration, Mean, 50 mg IV Dose (h 0, 2, 4, then q4h to h 44), Time 0.500 hr): 261 ng/mL | concentration at 0.75 h ([8]; human, plasma, iv, 50 mg, plasma concentration, Mean, 50 mg IV Dose (h 0, 2, 4, then q4h to h 44), Time 0.750 hr): 243 ng/mL | concentration at 1 h ([8]; human, plasma, iv, 50 mg, plasma concentration, Mean, 50 mg IV Dose (h 0, 2, 4, then q4h to h 44), Time 1.00 hr): 231 ng/mL | concentration at 2 h ([8]; human, plasma, iv, 50 mg, plasma concentration, Mean, 50 mg IV Dose (h 0, 2, 4, then q4h to h 44), Time 2.00 hr): 188 ng/mL | concentration at 2.5 h ([8]; human, plasma, iv, 50 mg, plasma concentration, Mean, 50 mg IV Dose (h 0, 2, 4, then q4h to h 44), Time 2.50 hr): 442 ng/mL | concentration at 4 h ([8]; human, plasma, iv, 50 mg, plasma concentration, Mean, 50 mg IV Dose (h 0, 2, 4, then q4h to h 44), Time 4.00 hr): 335 ng/mL | concentration at 4.25 h ([8]; human, plasma, iv, 50 mg, plasma concentration, Mean, 50 mg IV Dose (h 0, 2, 4, then q4h to h 44), Time 4.25 hr): 662 ng/mL | concentration at 4.5 h ([8]; human, plasma, iv, 50 mg, plasma concentration, Mean, 50 mg IV Dose (h 0, 2, 4, then q4h to h 44), Time 4.50 hr): 592 ng/mL | concentration at 5 h ([8]; human, plasma, iv, 50 mg, plasma concentration, Mean, 50 mg IV Dose (h 0, 2, 4, then q4h to h 44), Time 5.00 hr): 527 ng/mL | concentration at 6 h ([8]; human, plasma, iv, 50 mg, plasma concentration, Mean, 50 mg IV Dose (h 0, 2, 4, then q4h to h 44), Time 6.00 hr): 433 ng/mL | concentration at 8 h ([8]; human, plasma, iv, 50 mg, plasma concentration, Mean, 50 mg IV Dose (h 0, 2, 4, then q4h to h 44), Time 8.00 hr): 346 ng/mL | concentration at 12 h ([8]; human, plasma, iv, 50 mg, plasma concentration, Mean, 50 mg IV Dose (h 0, 2, 4, then q4h to h 44), Time 12.0 hr): 353 ng/mL | concentration at 20 h ([8]; human, plasma, iv, 50 mg, plasma concentration, Mean, 50 mg IV Dose (h 0, 2, 4, then q4h to h 44), Time 20.0 hr): 419 ng/mL | concentration at 32 h ([8]; human, plasma, iv, 50 mg, plasma concentration, Mean, 50 mg IV Dose (h 0, 2, 4, then q4h to h 44), Time 32.0 hr): 422 ng/mL | concentration at 40 h ([8]; human, plasma, iv, 50 mg, plasma concentration, Mean, 50 mg IV Dose (h 0, 2, 4, then q4h to h 44), Time 40.0 hr): 424 ng/mL | concentration at 44 h ([8]; human, plasma, iv, 50 mg, plasma concentration, Mean, 50 mg IV Dose (h 0, 2, 4, then q4h to h 44), Time 44.0 hr): 424 ng/mL | concentration at 44.3 h ([8]; human, plasma, iv, 50 mg, plasma concentration, Mean, 50 mg IV Dose (h 0, 2, 4, then q4h to h 44), Time 44.3 hr): 697 ng/mL | concentration at 44.5 h ([8]; human, plasma, iv, 50 mg, plasma concentration, Mean, 50 mg IV Dose (h 0, 2, 4, then q4h to h 44), Time 44.5 hr): 655 ng/mL | concentration at 44.8 h ([8]; human, plasma, iv, 50 mg, plasma concentration, Mean, 50 mg IV Dose (h 0, 2, 4, then q4h to h 44), Time 44.8 hr): 645 ng/mL
